Where two headings read alike, the source gives them in different places.
Key:
[1] = Evaluation of heat resistance (thermogravimetry, 5% reduction in weight temperature); assay type: physicochemical; details: for 5% heat decomposition temperature: temperature rise rate 10° C./min, nitrogen atmosphere
Protocol: Herein, the 5% reduction in weight temperature means a temperature at which the weight of a sample is reduced […] when a decrement of weight is measured using a thermogravimetric analyzer according to the same method as in the examples of the present invention as will be explained later. Similarly, the 10% reduction in weight temperature means a temperature at which the weight of a sample is reduced […].
Using a differential type differential thermal balance (product name: TG8120; manufactured by Rigaku Corporation), the 5% reduction in weight temperature of each of the compounds 1 to 15 was measured at a temperature rise rate of 10° C./min in a nitrogen atmosphere. As comparative examples, the comparative compounds 2 and 3 and a self-cleavage type photoradical generator Irgacure 907 (trademark; manufactured by Ciba Specialty Chemicals) were similarly measured.

[2] = Evaluation 1 of curability (coating layer with trifunctional acrylate, UV exposure, no hydrogen donor); details: for Reaction rate (decrement of double bond): nitrogen; for Compatibility with M305: imide part/double bond 1/50
Protocol: (§1) Using a trifunctional acrylate (product name; M-305, manufactured by Toagosei Co., Ltd.) as polyfunctional monomers, the compounds 1 to 14, the comparative compounds 2 and 3 and a photoradical generator Irgacure 907 (product name; manufactured by Ciba Specialty Chemicals) were mixed with each polyfunctional monomer to prepare each THF solution of each photoradical generator.
(§2) The mixing was performed so that a ratio of the photoradical generator to the polyfunctional monomer is such that number of imide part of each of the compounds 1 to 14 and the comparative compounds 2 and 3 with respect to number of double bond of the polyfunctional monomer is 1/50 (number of imide part/number of polyfunctional monomer) or, in the case of Irgacure, number of the molecule with respect to number of double bond of the polyfunctional monomer is 1/50 (number of Irgacure 907/number of polyfunctional monomer).
(§3) Each solution was applied by spin coating to a glass substrate on which chromium was sputtered to obtain coating layers. Also, a layer without initiator component or comparative compounds and only containing trifunctional acrylate was formed as a blank.
(§4) A decrement of the peak at 810 cm^−1 was recorded with time by using an infrared spectrometer (product name: FTS6000; manufactured by BIO RAD) while exposing the above coating layer to ultraviolet rays, to confirm the degree of the disappearance of a double bond. The atmosphere around the sample during measurement was replaced with nitrogen. As the UV exposure apparatus, UV Spot Cure SP-III type (standard reflecting mirror type) manufactured by Ushio Inc. was used and as the UV lamp, USH-255BY (manufactured by Ushio Inc.) was used.

[3] = Evaluation 2 of curability (triethanolamine added as hydrogen donor)
Protocol: as §1, §2, §3, §4
In order to confirm whether or not the seven-membered ring imide structure-containing group was a hydrogen-drawing type radical generator, triethanolamine was added to THF solutions containing each of the compositions 1 to 14 used in the aforementioned Evaluation 1 of curability and trifunctional acrylate M305, coating layers were formed in the same manner as in the aforementioned Evaluation 1 of curability, and evaluated similarly. As comparative examples, each of the comparative compounds 1 and 3 was used.

Solubility test = assay type: physicochemical; details: for solubility at 3 h: organic solvent or mixture, thermodynamic from solid
Protocol: As for the compound 1 and the comparative compound 3, a solubility test was performed respectively. Each sample was added to each solvent or monomer so as to be 0.5 mol/L at 20° C. After radiating ultrasonic wave for 3 hours, one with a precipitate was concluded as “0” and one without a precipitate was concluded as “x”.

[4] = Evaluation of transparency (transmittance of cured coating layer); assay type: physicochemical
Protocol: Using a trifunctional acrylate (product name; M305, manufactured by Toagosei Co., Ltd.) as polyfunctional monomers, each of the compound 1, a combination of the compound 1 and triethanolamine of the same number of mol and a photoradical generator Irgacure 907 (Irg907) were mixed to prepare each THF solution in the same ratio as the Evaluation of curability. Each solution was applied by spin coating to a glass substrate and heated on a 50° C. hot plate for one minute. Then, the substrate was exposed to light from a high pressure mercury lamp at an intensity of 2,000 mJ/cm^2 based on h-rays by using a hand-operated exposure apparatus (MA-1200, manufactured by Dainippon Screen Mfg. Co., Ltd.), to obtain a coating layer having a thickness of 4.2±0.05 μm. The transmittance of each coating layer was measured by a spectrometer (UV-2550 (PC)S GLP; manufactured by Shimadzu Corporation).

[5] = Evaluation of ultraviolet absorption; assay type: physicochemical; details: for ultraviolet absorption bottom edge / ultraviolet absorption maximum wavelength: acetonitrile solution, 1.0×10^−5 mol/L
Protocol: Using an acetonitrile solution containing 1.0×10^−5 mol/L of each of the compounds 1 and 15, each ultraviolet absorption spectrum was measured.

[6] = 0.5 mol/L at 20° C., ultrasonic wave 3 hours

| 5% heat decomposition temperature [1] [°C] | Compatibility with M305 [2] | Compatibility with M305 [3] | Solubility in Acetone (Solubility test; [6]) | Solubility in Chloroform (Solubility test; [6]) | Solubility in Dimethylformamide (Solubility test; [6]) | Solubility in Tetrahydrofuran (Solubility test; [6]) | SMILES | Reaction rate (decrement of double bond) ([2]; Exposure 50 mJ) [%] | Reaction rate (decrement of double bond) ([2]; Exposure 100 mJ) [%] | Reaction rate (decrement of double bond) ([2]; Exposure 400 mJ) [%] | Reaction rate (decrement of double bond) ([3]; Exposure 50 mJ) [%] | Reaction rate (decrement of double bond) ([3]; Exposure 100 mJ) [%] | Reaction rate (decrement of double bond) ([3]; Exposure 400 mJ) [%] | ultraviolet absorption bottom edge [5] | ultraviolet absorption maximum wavelength [5] | other results |
| --- | --- | --- | --- | --- | --- | --- | --- | --- | --- | --- | --- | --- | --- | --- | --- | --- |
| 224 | ∘ | ∘ | ∘ | ∘ | ∘ | ∘ | COCCn1c(=O)c2ccccc2c2ccccc2c1=O [Compound 1] | 0.3 | 0.5 | 1.1 | 17.3 | 23.6 | 36.6 | about 320 nm | about 240 nm | solubility, comparison in words (Solubility test): superior in solubility to the comparative compound 3; Solubility in Ethyl acetate (Solubility test; [6]): ∘; Solubility in Ethyl lactate (Solubility test; [6]): ∘; Solubility in Methyl acrylate (Solubility test; [6]): ∘; Solubility in Pentaerythritol triacrylate (M305) (Solubility test; [6]): ∘; Solubility in Propylene glycol monoethyl ether acetate (Solubility test; [6]): ∘; transmittance of cured layer ([4]; M305 coating layer 4.2±0.05 μm, 2,000 mJ/cm^2, compared to Irg907): high in transmittance with respect to the light of 410 nm or less; transmittance of cured layer ([4]; triethanolamine of the same number of mol added, M305 coating layer 4.2±0.05 μm): almost same in transmittance as in the case of only the compound 1 |
| 229 | ∘ | ∘ | ∘ | ∘ | ∘ | ∘ | COCCN1C(=O)c2cccc3cccc(c23)C1=O [compound 3, reference compound] | 1.0 | 2.5 | 26.6 | 3.3 | 5.4 | 11.1 |  |  | solubility at 3 h (Solubility test; ethyl acetate, 0.5 mol/L at 20° C., ultrasonic wave 3 hours, read-out: Solubility in Ethyl acetate): < 500 mM; solubility at 3 h (Solubility test; ethyl lactate, 0.5 mol/L at 20° C., ultrasonic wave 3 hours, read-out: Solubility in Ethyl lactate): < 500 mM; solubility at 3 h (Solubility test; methyl acrylate, 0.5 mol/L at 20° C., ultrasonic wave 3 hours, read-out: Solubility in Methyl acrylate): < 500 mM; solubility at 3 h (Solubility test; pentaerythritol triacrylate (M305), 0.5 mol/L at 20° C., ultrasonic wave 3 hours, read-out: Solubility in Pentaerythritol triacrylate (M305)): < 500 mM; solubility at 3 h (Solubility test; propylene glycol monoethyl ether acetate, 0.5 mol/L at 20° C., ultrasonic wave 3 hours, read-out: Solubility in Propylene glycol monoethyl ether acetate): < 500 mM |

| SMILES | 5% heat decomposition temperature [1] [°C] | Compatibility with M305 [2] | Compatibility with M305 [3] | Solubility in Acetone (Solubility test; [6]) | Solubility in Chloroform (Solubility test; [6]) | Solubility in Dimethylformamide (Solubility test; [6]) | Solubility in Tetrahydrofuran (Solubility test; [6]) | Reaction rate (decrement of double bond) ([2]; Exposure 50 mJ) [%] | Reaction rate (decrement of double bond) ([2]; Exposure 100 mJ) [%] | Reaction rate (decrement of double bond) ([2]; Exposure 400 mJ) [%] | Reaction rate (decrement of double bond) ([3]; Exposure 50 mJ) [%] | Reaction rate (decrement of double bond) ([3]; Exposure 100 mJ) [%] | Reaction rate (decrement of double bond) ([3]; Exposure 400 mJ) [%] | ultraviolet absorption bottom edge [5] | ultraviolet absorption maximum wavelength [5] | other results |
| --- | --- | --- | --- | --- | --- | --- | --- | --- | --- | --- | --- | --- | --- | --- | --- | --- |
| COCCn1c(=O)c2cc([N+](=O)[O-])ccc2c2ccc([N+](=O)[O-])cc2c1=O [Compound 15] | 280 |  |  |  |  |  |  |  |  |  |  |  |  | about 320 nm | about 240 nm | improvement of heat decomposition temperature in comparison with the compound 1 [1]: ≥ 50 °C; absorption at 365 nm (emitting wavelength of high pressure mercury lamp) [5]: has absorption at a wavelength of 365 nm |
